Laboratory results as given in US11078198B2 (BRISTOL-MYERS SQUIBB COMPANY, priority 2017, dated 2021).
pEC50: −log10 of the molar value.

These molecules were tested against T1, human FXR (Homo sapiens, UniProt Q96RI1) (assay: transient human FXR/Gal4-luciferase reporter assay). Conditions: Gal4-hFXR transfected HEK293 reporter cells; relative to 8 μM GW-4064.
T1 construct: expressed in transfected cells; host or cells: HEK293 cells stably carrying a 5xGal4-response-element firefly luciferase reporter, transiently transfected with pcDNA3.1-Gal4-FXR
T1 sequence (Q96RI1 262-486 limits assumed): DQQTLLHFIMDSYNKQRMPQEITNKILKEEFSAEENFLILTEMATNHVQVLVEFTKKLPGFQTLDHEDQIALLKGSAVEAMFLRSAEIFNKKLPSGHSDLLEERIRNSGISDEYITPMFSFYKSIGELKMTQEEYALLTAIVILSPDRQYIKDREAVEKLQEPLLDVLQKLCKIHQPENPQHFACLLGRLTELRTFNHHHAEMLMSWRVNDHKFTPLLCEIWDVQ
Type: cell-based
Procedure: A Gal4-hFXR fusion construct reporter system was used as the primary assay to characterize compound activity. A construct including 5 copies of the Gal4 promoter response element upstream of a firefly luciferase reporter cDNA was stably expressed in HEK293 cells. This reporter cell line was maintained in Dulbecco's Modified Eagle's medium (DMEM; Gibco) supplemented with 1% penicillin-streptomycin (P/S) solution, 500 μg/mL Zeocin and 10% charcoal/dextran-treated fetal bovine serum (cs-FBS) at 37° C. in a humidified 5% CO2 atmosphere. Another plasmid was constructed in which the human cytomegalovirus promoter in the pcDNA3.1 vector directs the expression of the cDNA encoding a fusion protein comprised of the DNA binding domain from the Gal4 transcription factor fused to the ligand binding domain from human FXR.
The day prior to transfection, the reporter cells in culture are detached from the plate with trypsin and plated into a T75 flask at a sufficient density to achieve approximately 90% confluence the next morning. The transfection reagents are prepared by separately diluting 25 μg of the pcDNA3.1-Gal4-FXR plasmid into 1.87 mL of Opti-MEM (Thermo-Fisher), and 40 μL of Lipofectamine 2000 (Thermo-Fisher) into 1.87 mL of Opti-MEM, and then adding the diluted DNA solution into the diluted Lipofectamine 2000 solution and incubating at room temperature for 15-20 minutes. The mixture is further diluted with 10 mL of a solution comprised of DMEM, 10% cs-FBS, and 1% P/S immediately prior to transferring to the cells. The maintenance culture media is aspirated from the cells and the final transfection mixture is added before the cells are incubated overnight at 37° C. in a humidified 5% CO2 atmosphere. This protocol can be scaled up, and the transiently transfected cells can be cryopreserved in an assay-ready format.
For compound testing, 100 nL of the compounds (serial dilutions in DMSO) are dispensed with an Echo acoustic dispenser (Labcyte) into the wells of a Corning/Costar clear bottom 384-well white plate. The transfected cells are harvested, counted, and diluted such that 10-25,000 cells in 25 μL are plated into each well of the 384-well compound assay plate. The compound-treated cells are incubated overnight at 37° C. in a humidified 5% CO2 atmosphere.

Structure (SMILES) | pEC50
COc1cc(C(=O)O)nc2ccc(N3CCC4(C=C(c5c(-c6ccccc6C(F)(F)F)noc5C5CC5)C4)CC3)cc12 [Example 105, 6-(2-(5-Cyclopropyl-3-(2-(trifluoromethyl)phenyl)isoxazol-4-yl)-7-azaspiro[3.5]non-1-en-7-yl)-4-methoxyquinoline-2-carboxylic acid] | 7.21
O=C(O)c1cc(OC(F)F)c2cc(N3CCC4(C=C(c5c(-c6ccccc6C(F)(F)F)noc5C5CC5)C4)CC3)ccc2n1 [Example 58, 6-(2-(5-Cyclopropyl-3-(2-(trifluoromethyl)phenyl)isoxazol-4-yl)-7-azaspiro[3.5]non-1-en-7-yl)-4-(difluoromethoxy)quinoline-2-carboxylic acid] | 8.64
O=C(O)c1cc(OC(F)F)c2cc(N3CCC4(C=C(c5c(-c6cccnc6C(F)(F)F)noc5C5CC5)C4)CC3)ccc2n1 [Example 77, 6-(2-(5-Cyclopropyl-3-(2-(trifluoromethyl)pyridin-3-yl)isoxazol-4-yl)-7-azaspiro[3.5]non-1-en-7-yl)-4-(difluoromethoxy)quinoline-2-carboxylic acid] | 7.17
O=C(O)c1ccc(N2CCC3(C=C(c4c(-c5ccccc5OC(F)(F)F)noc4C4CC4)C3)CC2)nn1 [Example 18, 6-(2-(5-Cyclopropyl-3-(2-(trifluoromethoxy)phenyl)isoxazol-4-yl)-7-azaspiro[3.5]non-1-en-7-yl)pyridazine-3-carboxylic acid] | 5.82
O=C(O)c1cc2ccc(N3CCC4(C=C(c5c(-c6c(Cl)cccc6Cl)noc5C5CC5)C4)CC3)cc2nn1 [Example 53, 7-(2-(5-Cyclopropyl-3-(2,6-dichlorophenyl)isoxazol-4-yl)-7-azaspiro[3.5]non-1-en-7-yl)cinnoline-3-carboxylic acid] | 7.34
Cn1cc(C(=O)O)c2ccc(N3CCC4(C=C(c5c(-c6ccccc6C(F)(F)F)noc5C5CC5)C4)CC3)cc21 [Example 141, 6-(2-(5-Cyclopropyl-3-(2-(trifluoromethyl)phenyl)isoxazol-4-yl)-7-azaspiro[3.5]non-1-en-7-yl)-1-methyl-1H-indole-3-carboxylic acid] | 6.85
O=C(O)c1ccc2nc(N3CCC4(C=C(c5c(-c6c(Cl)cncc6Cl)noc5C5CC5)C4)CC3)sc2c1 [Example 63, 2-(2-(5-Cyclopropyl-3-(3,5-dichloropyridin-4-yl)isoxazol-4-yl)-7-azaspiro[3.5]non-1-en-7-yl)benzo[d]thiazole-6-carboxylic acid] | 7.21
O=C(NS(=O)(=O)C1CC1)c1cc(C(F)(F)F)c2cc(N3CCC4(C=C(c5c(-c6c(Cl)cncc6Cl)noc5C5CC5)C4)CC3)ccc2n1 [Example 183, 6-(2-(5-Cyclopropyl-3-(3,5-dichloropyridin-4-yl)isoxazol-4-yl)-7-azaspiro[3.5]non-1-en-7-yl)-N-(cyclopropylsulfonyl)-4-(trifluoromethyl)quinoline-2-carboxamide] | 7.26
O=C(NS(=O)(=O)C1CC1)c1cc(OC(F)F)c2cc(N3CCC4(C=C(c5c(-c6ncccc6Cl)noc5C5CC5)C4)CC3)ccc2n1 [Example 189, 6-(2-(3-(3-Chloropyridin-2-yl)-5-cyclopropylisoxazol-4-yl)-7-azaspiro[3.5]non-1-en-7-yl)-N-(cyclopropylsulfonyl)-4-(difluoromethoxy)quinoline-2-carboxamide] | 7.32
Cn1c(N2CCC3(C=C(c4c(-c5c(Cl)cccc5Cl)noc4C4CC4)C3)CC2)nc2cc(C(=O)O)ccc21 [Example 25, 2-(2-(5-Cyclopropyl-3-(2,6-dichlorophenyl)isoxazol-4-yl)-7-azaspiro[3.5]non-1-en-7-yl)-1-methyl-1H-benzo[d]imidazole-5-carboxylic acid] | 5.99
O=C(O)c1cccc(N2CCC3(C=C(c4c(-c5c(Cl)cccc5Cl)noc4C4CC4)C3)CC2)c1 [Example 9, 3-(2-(5-Cyclopropyl-3-(2,6-dichlorophenyl)isoxazol-4-yl)-7-azaspiro[3.5]non-1-en-7-yl)benzoic acid] | 5.38
CC(C)Oc1cc(C(=O)O)nc2ccc(N3CCC4(C=C(c5c(-c6ccccc6OC(F)(F)F)noc5C5CC5)C4)CC3)cc12 [Example 106, 6-(2-(5-Cyclopropyl-3-(2-(trifluoromethoxy)phenyl)isoxazol-4-yl)-7-azaspiro[3.5]non-1-en-7-yl)-4-isopropoxyquinoline-2-carboxylic acid] | 7.68
CS(=O)(=O)NC(=O)c1cc(OC(F)F)c2cc(N3CCC4(C=C(c5c(-c6cccnc6C(F)(F)F)noc5C5CC5)C4)CC3)ccc2n1 [Example 192, 6-(2-(5-Cyclopropyl-3-(2-(trifluoromethyl)pyridin-3-yl)isoxazol-4-yl)-7-azaspiro[3.5]non-1-en-7-yl)-4-(difluoromethoxy)-N-(methylsulfonyl)quinoline-2-carboxamide] | 6.62
O=C(O)c1cc(C(F)(F)F)c2cc(N3CCC4(C=C(c5c(-c6c(F)cccc6F)noc5C5CC5)C4)CC3)ccc2n1 [Example 82, 6-(2-(5-Cyclopropyl-3-(2,6-difluorophenyl)isoxazol-4-yl)-7-azaspiro[3.5]non-1-en-7-yl)-4-(trifluoromethyl)quinoline-2-carboxylic acid] | 6.45
CS(=O)(=O)NC(=O)c1cc(OC(F)F)c2cc(N3CCC4(C=C(c5c(-c6ccccc6C(F)(F)F)noc5C5CC5)C4)CC3)ccc2n1 [Example 186, 6-(2-(5-Cyclopropyl-3-(2-(trifluoromethyl)phenyl)isoxazol-4-yl)-7-azaspiro[3.5]non-1-en-7-yl)-4-(difluoromethoxy)-N-(methylsulfonyl)quinoline-2-carboxamide] | 7.89
Cc1cc(C(=O)O)cc2sc(N3CCC4(CC3)CC(c3c(C(F)F)cnn3-c3ccccc3C(F)(F)F)C4)nc12 [Example 220, 2-(2-(4-(Difluoromethyl)-1-(2-(trifluoromethyl)phenyl)-1H-pyrazol-5-yl)-7-azaspiro[3.5]nonan-7-yl)-4-methylbenzo[d]thiazole-6-carboxylic acid] | 6.42
O=C(O)c1cc(C(F)(F)F)c2cc(N3CCC4(C=C(c5c(C(F)F)cnn5-c5ccccc5C(F)(F)F)C4)CC3)ccc2n1 [Example 214, 6-(2-(4-(Difluoromethyl)-1-(2-(trifluoromethyl)phenyl)-1H-pyrazol-5-yl)-7-azaspiro[3.5]non-1-en-7-yl)-4-(trifluoromethyl)quinoline-2-carboxylic acid] | 7.59
CCNC(=O)c1cc(F)c2nc(N3CCC4(C=C(c5c(-c6c(Cl)cncc6Cl)noc5C5CC5)C4)CC3)sc2c1 [Example 200, 2-(2-(5-Cyclopropyl-3-(3,5-dichloropyridin-4-yl)isoxazol-4-yl)-7-azaspiro[3.5]non-1-en-7-yl)-N-ethyl-4-fluorobenzo[d]thiazole-6-carboxamide] | 7.17
O=C(O)c1cc(F)c2nc(N3CCC4(C=C(c5c(-c6c(Cl)cccc6Cl)noc5C5CC5)CO4)CC3)sc2c1 [Example 3, 2-(3-(5-Cyclopropyl-3-(2,6-dichlorophenyl)isoxazol-4-yl)-1-oxa-8-azaspiro[4.5]dec-3-en-8-yl)-4-fluorobenzo[d]thiazole-6-carboxylic acid] | 6.62
O=C(O)c1cnc(N2CCC3(C=C(c4c(-c5ccccc5C(F)(F)F)noc4C4CC4)C3)CC2)cc1C(F)(F)F [Example 163, 6-(2-(5-Cyclopropyl-3-(2-(trifluoromethyl)phenyl)isoxazol-4-yl)-7-azaspiro[3.5]non-1-en-7-yl)-4-(trifluoromethyl)nicotinic acid] | 6.46
O=C(O)c1cc(F)c2nc(N3CCC4(C=C(c5c(-c6cccnc6C(F)(F)F)noc5C5CC5)C4)CC3)sc2c1 [Example 138, 2-(2-(5-Cyclopropyl-3-(2-(trifluoromethyl)pyridin-3-yl)isoxazol-4-yl)-7-azaspiro[3.5]non-1-en-7-yl)-4-fluorobenzo[d]thiazole-6-carboxylic acid] | 6.50
Cn1nc(C(=O)O)c2ccc(N3CCC4(C=C(c5c(-c6c(Cl)cccc6Cl)noc5C5CC5)C4)CC3)cc21 [Example 125, 6-(2-(5-Cyclopropyl-3-(2,6-dichlorophenyl)isoxazol-4-yl)-7-azaspiro[3.5]non-1-en-7-yl)-1-methyl-1H-indazole-3-carboxylic acid] | 7.02
